Assay results from patent US11883680B2, “Method and apparatus for tightening skin and other tissues” (The General Hospital Corporation, priority 2016, dated 2024).

Test system: human skin
Assay: mechanical testing of skin sample sites with a tensiometer (elastic modulus, peak load)
Settings: fully treated (full thickness needling + 0.1% Rose Bengal in saline + green light LED array) vs untreated and needled-only skin
Protocol: Additionally, mechanical testing was performed on sample sites using a tensiometer to measure elastic modulus before and after treatment. The elastic modulus and peak load were recorded on samples that were (1) untreated (2) partially treated (needled only), and (3) fully treated (needled plus agent application and irradiation). Full treatment included full thickness needling of the skin surface followed by application of a 0.1% solution of Rose Bengal in saline and irradiation with a multi-light-emitting LED diode array that delivered green light to the sample surface.

## O=C([O-])c1c(Cl)c(Cl)c(Cl)c(Cl)c1-c1c2cc(I)c(=O)c(I)c-2oc2c(I)c([O-])c(I)cc12.[Na+].[Na+] [Rose Bengal]
  increase in peak load: three-fold
  increase in the elastic modulus: five-fold
